# Results taken from patent EP0237929B1, “3,5-Disubstituted pyrocatechol derivatives” (F. HOFFMANN-LA ROCHE AG, priority 1986, dated 1987).
# What was measured:
# [1] = Acute toxicity after a single oral administration to mice; conditions: mouse, in vivo, p.o., read-out: DL₅₀
# [2] = biological target: T1, Catechol-O-Methyl-Transferase (COMT) (Rattus norvegicus, UniProt P22734); experiment: COMT inhibition in rat liver homogenates; format: biochemical, Ratten
# T1 construct: Man inkubiert Rattenleber-Homogenate in Gegenwart eines geeigneten Substrates; from tissue; host or cells: rat liver homogenate
# T1 sequence (P22734 1-264): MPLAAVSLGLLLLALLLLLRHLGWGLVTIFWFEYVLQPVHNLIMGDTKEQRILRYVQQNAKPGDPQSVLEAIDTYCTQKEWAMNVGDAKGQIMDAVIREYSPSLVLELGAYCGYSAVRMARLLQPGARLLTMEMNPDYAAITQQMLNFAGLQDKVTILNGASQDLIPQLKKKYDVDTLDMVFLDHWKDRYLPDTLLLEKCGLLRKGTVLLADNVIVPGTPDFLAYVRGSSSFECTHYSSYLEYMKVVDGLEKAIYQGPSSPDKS
# From the text: Diese Wirkung kann wie folgt quantitativ erfasst werden: Man inkubiert Rattenleber-Homogenate in Gegenwart eines geeigneten Substrates wie in J. Neurochem. […] In einer zweiten Versuchsreihe wird die Inkubation in Gegenwart einer Verbindung der Formel Ia durchgeführt. Aus der Differenz der ermittelten COMT-Aktivitäten lässt sich dann die IC₅₀ berechnen. Die IC₅₀ wird in nMol/l angegeben und ist diejenige Konzentration in der Inkubationsmischung, welche notwendig ist, um die COMT-Aktivität um 50% herabzusetzen.
SMILES,LD50 [1],IC50 [2]
"O=C(c1cc(O)c(O)c([N+](=O)[O-])c1)c1ccccc1F [2'-Fluor-3,4-dihydroxy-5-nitrobenzophenon]",312 to 625 mg/kg,42 nM
"CCCCOC(=O)c1cc(O)c(O)c([N+](=O)[O-])c1 [3,4-Dihydroxy-5-nitrobenzoesäure-n-butylester]",312 to 625 mg/kg,20 nM
"O=C(c1ccccc1)c1cc(O)c(O)c([N+](=O)[O-])c1 [3,4-Dihydroxy-5-nitrobenzophenon]",500 to 1000 mg/kg,48 nM
"O=C(c1cc(O)c(O)c([N+](=O)[O-])c1)c1ccccn1 [3,4-Dihydroxy-5-nitrophenyl-2-pyridylketon]",1250 to 2500 mg/kg,53.4 nM
"O=C(c1cccnc1)c1cc(O)c(O)c([N+](=O)[O-])c1 [3,4-Dihydroxy-5-nitrophenyl-3-pyridylketon]",1000 to 2000 mg/kg,47 nM
"O=C(c1ccncc1)c1cc(O)c(O)c([N+](=O)[O-])c1 [3,4-Dihydroxy-5-nitrophenyl-4-pyridylketon]",1000 to 2000 mg/kg,67 nM
"CCOC(=O)C(=O)c1cc(O)c(O)c([N+](=O)[O-])c1 [3,4-Dihydroxy-5-nitrophenylglyoxylsäureäthylester]",1250 to 2500 mg/kg,48.1 nM
"CCCCOC(=O)C=Cc1cc(O)c(O)c([N+](=O)[O-])c1 [3,4-Dihydroxy-5-nitrozimtsäure-n-butylester]",2500 to 5000 mg/kg,25.9 nM
"O=[N+]([O-])c1cc(O)c(O)c([N+](=O)[O-])c1 [3,5-Dinitropyrocatechol]",500 to 1000 mg/kg,
